The values that follow come from BindingDB's records for patent US20230293517 (Adorx Therapeutics, 2023).

Common to all, as to assay: Adenosine Receptor Time-Resolved Fluorescence Resonance Energy Transfer (TRFRET) Binding Assay
On the technique in general: Time-resolved FRET reads energy transfer from a long-lived donor to a nearby acceptor.

One assay has as its target T1, Adenosine receptor A2b (Homo sapiens, UniProt P29275).
T1 sequence (P29275 whole entry): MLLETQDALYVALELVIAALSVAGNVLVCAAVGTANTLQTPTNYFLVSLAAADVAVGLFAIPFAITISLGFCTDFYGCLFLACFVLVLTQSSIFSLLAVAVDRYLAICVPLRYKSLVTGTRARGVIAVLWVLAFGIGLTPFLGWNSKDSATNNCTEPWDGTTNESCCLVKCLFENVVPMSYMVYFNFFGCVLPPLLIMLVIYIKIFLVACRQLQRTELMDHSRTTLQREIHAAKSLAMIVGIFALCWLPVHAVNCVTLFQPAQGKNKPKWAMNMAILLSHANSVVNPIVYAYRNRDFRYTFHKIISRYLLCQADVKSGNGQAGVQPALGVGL
The method, then:
(§1) All FRET binding experiments were conducted at room temperature in white 384-well plates, in assay binding buffer containing 1×LabMed (Cisbio, France), 100 μg/mL saponin, 1% DMSO and 0.02% pluronic acid. Binding of the fluorescently labelled Adenosine receptor antagonist XAC (CA200645, FRET acceptor) to terbium-labelled A1, A2a, A2b and A3 adenosine receptors (FRET donors) was detected by time-resolved FRET due to the close proximity of the donor and acceptor in a binding event. To investigate the ability of unlabelled test compounds to bind to Adenosine A1, A2a, A2b and A3 receptors, dose response curves were constructed that determined the ability of a range of concentrations to inhibit the binding of 30 nM CA200645 to the A2b receptor and 100 nM CA200645 to the A1, A2a, and A3 receptor. Serial dilution (1:3 dilutions) of test compounds in neat DMSO and transfer of a 400 nL sample of test compound into the assay plate was carried out using the Mosquito (TTP Labtech, UK). The compound samples were incubated for 2 hours at room temperature with a fixed concentration of CA200645 defined for each receptor (see above) and CHO cell membranes containing the human Adenosine A1 (0.5 μg/well), A2a (0.3 μg/well), A2b (1 μg/well) or A3 (1 μg/well) receptor in 40 μL of assay buffer. Total and non-specific binding of CA200645 was determined in the absence and presence of 10 μM XAC, respectively. Following 2 hours incubation, the level of CA200645 binding was detected on a Pherastar FSX (BMG Labtech, Germany) using standard TR-FRET settings. […] FRET ratios were obtained by multiplying the acceptor/donor ratio value by 10,000. Specific binding was determined by subtracting the non-specific binding FRET ratio from the total binding FRET ratio.

The next assay has as its target T2, Adenosine receptor A3 (Homo sapiens, UniProt P0DMS8).
T2 sequence (P0DMS8 whole entry): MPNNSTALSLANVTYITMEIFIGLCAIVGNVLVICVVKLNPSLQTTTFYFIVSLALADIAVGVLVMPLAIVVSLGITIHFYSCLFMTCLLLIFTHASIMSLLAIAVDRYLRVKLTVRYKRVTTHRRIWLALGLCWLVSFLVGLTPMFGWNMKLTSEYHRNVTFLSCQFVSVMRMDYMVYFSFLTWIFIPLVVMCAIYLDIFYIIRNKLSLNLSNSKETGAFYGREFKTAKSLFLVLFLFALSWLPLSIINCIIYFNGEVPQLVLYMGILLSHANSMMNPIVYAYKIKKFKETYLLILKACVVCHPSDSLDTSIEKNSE
The method, then:
as §1

The target in the next assay is Adenosine receptor A2a (Homo sapiens, UniProt P29274). The method, then: as §1
Chain of Adenosine receptor A2a (P29274 whole entry): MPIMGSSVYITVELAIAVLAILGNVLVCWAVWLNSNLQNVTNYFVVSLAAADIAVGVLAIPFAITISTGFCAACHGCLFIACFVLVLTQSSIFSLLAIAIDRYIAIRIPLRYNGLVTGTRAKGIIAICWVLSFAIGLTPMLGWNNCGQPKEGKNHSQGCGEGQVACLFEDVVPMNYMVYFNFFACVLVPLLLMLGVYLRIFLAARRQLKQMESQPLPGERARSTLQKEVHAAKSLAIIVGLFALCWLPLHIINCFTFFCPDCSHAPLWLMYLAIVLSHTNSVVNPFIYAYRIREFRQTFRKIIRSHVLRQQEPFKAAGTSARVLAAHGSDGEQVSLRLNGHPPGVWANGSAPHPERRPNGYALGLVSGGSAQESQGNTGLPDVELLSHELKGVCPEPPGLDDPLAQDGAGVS
The next assay addresses T3, Adenosine receptor A1 (Homo sapiens, UniProt P30542).
T3 sequence (P30542 whole entry): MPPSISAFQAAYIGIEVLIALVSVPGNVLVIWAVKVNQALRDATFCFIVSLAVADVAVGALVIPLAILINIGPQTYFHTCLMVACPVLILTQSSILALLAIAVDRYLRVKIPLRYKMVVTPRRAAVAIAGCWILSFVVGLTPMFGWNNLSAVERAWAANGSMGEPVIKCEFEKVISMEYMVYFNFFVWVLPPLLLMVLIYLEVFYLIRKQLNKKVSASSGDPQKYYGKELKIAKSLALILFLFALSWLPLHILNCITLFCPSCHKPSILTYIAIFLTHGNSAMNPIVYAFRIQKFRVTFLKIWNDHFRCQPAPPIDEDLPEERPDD
As to the method: as §1

Broadly, the Ki is a measure of affinity in units of concentration, obtained from inhibition or displacement. Regarding `Cc1cc(-c2sc(NC(=O)N3CCC4(CC3)CNC4=O)nc2-c2cccc(C#N)c2)c(F)c(C)n1` [US20230293517, Example 6.69], the Ki on Adenosine receptor A2b is 1.4 nM; at Adenosine receptor A3, 156 nM; at Adenosine receptor A2a, 0.94 nM; on Adenosine receptor A1 it was 124 nM.

For the compound `Cc1cc(-c2sc(NC(=O)N3CC4(CNC(=O)C4)C3)nc2-c2cccc(C#N)c2)cc(C)n1` [US20230293517, Example 6.55], the Ki was 2.4 nM at Adenosine receptor A2b, 273 nM at Adenosine receptor A3, 0.6 nM at Adenosine receptor A2a and 86 nM at Adenosine receptor A1.

In the case of `Cc1cc(-c2sc(NC(=O)N3CC[C@@H]3CO)nc2-c2cccc(C#N)c2)cc(C)n1` [US20230293517, Example 6.91], the Ki at Adenosine receptor A2b amounted to 5.3 nM; at Adenosine receptor A3 it was 162 nM; at Adenosine receptor A2a, 1.66 nM; on Adenosine receptor A1, 20 nM.

In the case of `Cc1cc(-c2sc(NC(=O)N3CC4(CNC(=O)N4)C3)nc2-c2cccc(C#N)c2)cc(C)n1` [US20230293517, Example 6.57], the Ki at Adenosine receptor A2b worked out at 1.3 nM; on Adenosine receptor A3 it was 212 nM; on Adenosine receptor A2a, 0.88 nM; on Adenosine receptor A1, 32 nM.

`Cc1cc(-c2sc(NC(=O)N3CC4(COC4)C3)nc2-c2cccc(C#N)c2C)cc(C)n1` [US20230293517, Example 6.79]: the Ki on Adenosine receptor A2b worked out at 6 nM; on Adenosine receptor A3, 537 nM; at Adenosine receptor A2a it was 1.5 nM; at Adenosine receptor A1, 177 nM.

For the compound `Cc1cc(-c2sc(NC(=O)N3CC[C@H]3CO)nc2-c2cccc(C#N)c2)cc(C)n1` [US20230293517, Example 6.73], the Ki at Adenosine receptor A2b stood at 3.7 nM; on Adenosine receptor A3 it was 165 nM; on Adenosine receptor A2a, 2.51 nM; at Adenosine receptor A1 it was 92 nM.

On to `Cc1cc(-c2sc(NC(=O)N3CC[C@@H]3C)nc2-c2cccc(C#N)c2)cc(C)n1` [US20230293517, Example 6.72], for which the Ki at Adenosine receptor A2b turned out to be 1.2 nM; at Adenosine receptor A3, 94 nM; at Adenosine receptor A2a, 1.12 nM; on Adenosine receptor A1, 3 nM.

On to `Cc1cc(-c2sc(NC(=O)N3CCOC(C(N)=O)C3)nc2-c2cccc(C#N)c2)cc(C)n1` (configuration not stated) [US20230293517, Example 4.14], for which the Ki at Adenosine receptor A2b was found to be 2.4 nM; on Adenosine receptor A3, 200 nM; at Adenosine receptor A2a it was 2 nM; at Adenosine receptor A1, 67 nM.

Regarding `Cc1cc(-c2sc(NC(=O)N3CCC(C)(C#N)CC3)nc2-c2cccc(C#N)c2)c(F)c(C)n1` [US20230293517, Example 6.66], the Ki at Adenosine receptor A2b is 0.6 nM; at Adenosine receptor A3, 1210 nM; on Adenosine receptor A2a it was 0.43 nM; on Adenosine receptor A1, 37 nM.

Consider `Cc1cc(-c2sc(NC(=O)N3CCC4(CCCC(=O)N4)CC3)nc2-c2cccc(C#N)c2)cc(C)n1` [US20230293517, Example 6.58], for which the Ki worked out at 7.8 nM at Adenosine receptor A2b, 848 nM at Adenosine receptor A3, 2.27 nM at Adenosine receptor A2a and 559 nM at Adenosine receptor A1.

Turning to `Cc1cc(-c2sc(NC(=O)N3CC4(CCOCC4)C3)nc2-c2cccc(C#N)c2)cc(C)n1` [US20230293517, Example 6.54], the Ki came to 1.9 nM on Adenosine receptor A2b, 268 nM at Adenosine receptor A3, 0.38 nM at Adenosine receptor A2a and 53 nM at Adenosine receptor A1.

For `Cc1cc(-c2sc(NC(=O)N3CCOC[C@@H]3CO)nc2-c2cccc(C#N)c2)cc(C)n1` [US20230293517, Example 6.76], the Ki worked out at 21.7 nM at Adenosine receptor A2b, 321 nM at Adenosine receptor A3, 12.9 nM at Adenosine receptor A2a and 39 nM at Adenosine receptor A1.

Consider `Cc1cc(-c2sc(NC(=O)N3CCC4(CC3)CNC(=O)O4)nc2-c2cccc(C#N)c2)cc(C)n1` [US20230293517, Example 6.56], for which the Ki at Adenosine receptor A2b was 1.2 nM; at Adenosine receptor A3, 368 nM; at Adenosine receptor A2a, 0.59 nM; on Adenosine receptor A1 it was 75 nM.

As for `Cc1cc(-c2sc(NC(=O)N3CC(C)(C#N)C3)nc2-c2cccc(C#N)c2)c(F)c(C)n1` [US20230293517, Example 6.68], the Ki at Adenosine receptor A2b came to 0.6 nM; at Adenosine receptor A3 it was 217 nM; on Adenosine receptor A2a, 0.36 nM; at Adenosine receptor A1 it was 30 nM.

Regarding `Cc1cc(-c2sc(NC(=O)N3CC(C)(O)C3)nc2-c2cccc(C#N)c2)c(F)c(C)n1` [US20230293517, Example 6.67], the Ki on Adenosine receptor A2b is 1 nM; on Adenosine receptor A3, 201 nM; on Adenosine receptor A2a it was 2.06 nM; on Adenosine receptor A1, 22 nM.

In the case of `Cc1cc(-c2sc(NC(=O)N3CCC4(CC3)CNC(=O)N4C)nc2-c2cccc(C#N)c2)cc(C)n1` [US20230293517, Example 6.51], the Ki on Adenosine receptor A2b was 1.2 nM; on Adenosine receptor A3, 318 nM; at Adenosine receptor A1 it was 120 nM.

In the case of `Cc1cc(-c2sc(NC(=O)N3CCC[C@H]3CO)nc2-c2cccc(C#N)c2)cc(C)n1` [US20230293517, Example 6.71], the Ki at Adenosine receptor A2b came out at 4.2 nM; on Adenosine receptor A3, 62 nM; at Adenosine receptor A2a, 3.45 nM; on Adenosine receptor A1, 110 nM.
